target: endogenous cellular BACE2 in the Ins1e rat cell line (Rattus norvegicus (Rat), UniProt Q6IE75); assay: Assay for BACE inhibition by measuring cellular TMEM27 cleavage (ELISA of shed hTMEM27 from INS-TMEM27 cells); type: cell-based; details: assay a): cellular TMEM27 cleavage, INS-TMEM27 cells (superscript a)
Source text: a) Assay for BACE Inhibition by Measuring Cellular TMEM27 Cleavage:
The assay uses the principle of inhibition of human TMEM27 cleavage by endogenous cellular BACE2 in the Ins1e rat cell line and shedding from the cell surface into the culture medium, followed by detection in an ELISA assay. Inhibition of BACE2 prevents the cleavage and shedding in a dose-dependent manner.
The stable cell line “INS-TMEM27” represents an INS1e-derived cell line with inducible expression (using the TetOn system) of full-length hTMEM27 in a doxycycline-dependent manner. The cells are cultured throughout the experiment in RPMI1640+Glutamax (Invitrogen) Penicillin/Streptomycin, 10% Fetal bovine serum, […], […], 100 micrograms/ml G418 and 100 microgram/ml hygromycin and are grown inadherent culture at 37° C. in a standard CO2 cell culture incubator.
INS-TMEM27 cells are seeded in 96-well plates. After 2 days in culture, BACE2 inhibitor is added in a range of concentrations as required by the assay and after a further two hours, doxycycline is added to a final concentration of 500 ng/ml. The cells are incubated for a further 46 hours and the supernatant harvested for detection of shed TMEM27.
An ELISA assay (using a pair of mouse anti-human-TMEM27 antibodies, raised against the extracellular domain of TMEM27) is used for detection of TMEM27 in the culture medium. An EC50 for BACE2 inhibition is calculated using the ELISA readout for each inhibitor concentration with standard curve-fitting software such as XLFit for the Excel spreadsheet program.

Sequence of endogenous cellular BACE2 in the Ins1e rat cell line (Q6IE75 63-514): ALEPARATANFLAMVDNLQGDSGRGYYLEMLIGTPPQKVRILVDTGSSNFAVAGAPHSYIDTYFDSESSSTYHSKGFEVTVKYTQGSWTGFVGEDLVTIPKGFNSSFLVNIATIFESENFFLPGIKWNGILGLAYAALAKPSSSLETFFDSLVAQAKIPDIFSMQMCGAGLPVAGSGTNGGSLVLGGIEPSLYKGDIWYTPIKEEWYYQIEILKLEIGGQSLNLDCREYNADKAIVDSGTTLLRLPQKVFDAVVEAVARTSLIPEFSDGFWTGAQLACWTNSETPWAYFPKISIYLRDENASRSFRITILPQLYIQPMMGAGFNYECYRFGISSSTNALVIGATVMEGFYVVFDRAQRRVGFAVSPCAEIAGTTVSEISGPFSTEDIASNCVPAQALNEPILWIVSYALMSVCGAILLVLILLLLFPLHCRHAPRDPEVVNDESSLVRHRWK

Compared with `CN1C(=O)C(C)(C)[C@@](C)(c2cc(NC3CCc4cc(Cl)ccc43)ccc2F)N=C1N` (stereo partly drawn) [Example 29, (S)-2-Amino-6-[5-(5-chloro-indan-1-ylamino)-2-fluoro-phenyl]-3,5,5,6-tetramethyl-5,6-dihydro-3H-pyrimidin-4-one], `CN1C(=O)C(C)(C)[C@@](C)(c2cc(NC3CCc4cc(F)ccc43)ccc2F)N=C1N` (stereo partly drawn) [Example 35, (6S)-2-Amino-6-(2-fluoro-5-(5-fluoro-2,3-dihydro-1H-inden-1-ylamino)phenyl)-3,5,5,6-tetramethyl-5,6-dihydropyrimidin-4(3H)-one] is 2.6-fold higher in IC50: 0.032 µM for the first, 0.084 µM for the second. The first is the more potent here.

Going from `CN1C(=O)C(C)(C)[C@@](C)(c2cc(NC3CCCC3Cl)ccc2F)N=C1N` (stereo partly drawn) [Example 30, (6S)-2-Amino-6-(5-(2-chlorocyclopentylamino)-2-fluorophenyl)-3,5,5,6-tetramethyl-5,6-dihydropyrimidin-4(3H)-one] to `CC1OCCC1Nc1ccc(F)c([C@@]2(C)N=C(N)N(C)C(=O)C2(C)C)c1` (stereo partly drawn) [Example 34, (6S)-2-Amino-6-(2-fluoro-5-(2-methyltetrahydrofuran-3-ylamino)phenyl)-3,5,5,6-tetramethyl-5,6-dihydropyrimidin-4(3H)-one], the IC50 falls from 0.033 µM to 0.008 µM (4.1-fold). The second is the more potent here.

`CN1C(=O)C(C)(C)[C@@](C)(c2cc(NC3CCN(c4ccc(F)cc4)C3)ccc2F)N=C1N` (stereo partly drawn) [Example 31, (6S)-2-Amino-6-(2-fluoro-5-(1-(4-fluorophenyl)pyrrolidin-3-ylamino)phenyl)-3,5,5,6-tetramethyl-5,6-dihydropyrimidin-4(3H)-one] and `CN1C(=O)C(C)(C)[C@@](C)(c2cc(NC3CCN(Cc4ccccc4)C3)ccc2F)N=C1N` (stereo partly drawn) [Example 32, (6S)-2-Amino-6-(5-(1-benzylpyrrolidin-3-ylamino)-2-fluorophenyl)-3,5,5,6-tetramethyl-5,6-dihydropyrimidin-4(3H)-one] are within 1.5-fold of each other in IC50: 0.037 µM for the first, 0.032 µM for the second.

Going from `CN1C(=O)C(C)(C)[C@@](C)(c2cc(NC3CCC(c4ccccc4)C3)ccc2F)N=C1N` (stereo partly drawn) [Example 33, (6S)-2-Amino-6-(2-fluoro-5-(3-phenylcyclopentylamino)phenyl)-3,5,5,6-tetramethyl-5,6-dihydropyrimidin-4(3H)-one] to `CN1C(=O)C(C)(C)[C@@](C)(c2cc(NC3CCN(Cc4ccccc4)CC3)ccc2F)N=C1N` [Example 43, (S)-2-Amino-6-[5-(1-benzyl-piperidin-4-ylamino)-2-fluoro-phenyl]-3,5,5,6-tetramethyl-5,6-dihydro-3H-pyrimidin-4-one], the IC50 rises from 0.029 µM to 0.211 µM (7.3-fold).

Compared with `CN1C(=O)C(C)(C)[C@@](C)(c2cc(Nc3ccnn3C)ccc2F)N=C1N` [Example 36, (S)-2-Amino-6-[2-fluoro-5-(2-methyl-2H-pyrazol-3-ylamino)-phenyl]-3,5,5,6-tetramethyl-5,6-dihydro-3H-pyrimidin-4-one], `Cc1cc(Nc2ccc(F)c([C@@]3(C)N=C(N)N(C)C(=O)C3(C)C)c2)n(C)n1` [Example 39, (S)-2-Amino-6-[5-(2,5-dimethyl-2H-pyrazol-3-ylamino)-2-fluoro-phenyl]-3,5,5,6-tetramethyl-5,6-dihydro-3H-pyrimidin-4-one] is 2.3-fold lower in IC50: 0.535 µM for the first, 0.234 µM for the second. The second is the more potent here.

First: CC(Nc1ccc(F)c([C@@]2(C)N=C(N)N(C)C(=O)C2(C)C)c1)C1CC1 (stereo partly drawn) [Example 37, (S)-2-Amino-6-[5-(1-cyclopropyl-ethylamino)-2-fluoro-phenyl]-3,5,5,6-tetramethyl-5,6-dihydro-3H-pyrimidin-4-one]
Second: CN1C(=O)C(C)(C)[C@@](C)(c2cc(NCC3CC3)ccc2F)N=C1N [Example 52, (S)-2-Amino-6-(5-(C-cyclopropylmethylamino)-2-fluorophenyl)-3,5,5,6-tetramethyl-5,6-dihydropyrimidin-4(3H)-one]
The IC50 of the first is 5.6-fold higher: 0.039 µM for the first, 0.007 µM for the second. The second is the more potent here.

`CC(Nc1ccc(F)c([C@@]2(C)N=C(N)N(C)C(=O)C2(C)C)c1)c1ccccc1` (stereo partly drawn) [Example 38, (S)-2-Amino-6-[2-fluoro-5-(1-phenyl-ethylamino)-phenyl]-3,5,5,6-tetramethyl-5,6-dihydro-3H-pyrimidin-4-one] and `CN1C(=O)C(C)(C)[C@@](C)(c2cc(Nc3ccccc3)ccc2F)N=C1N` [Example 48, (S)-2-amino-6-(2-fluoro-5-(phenylamino)phenyl)-3,5,5,6-tetramethyl-5,6-dihydropyrimidin-4(3H)-one] are within 1.5-fold of each other in IC50: 0.048 µM for the first, 0.042 µM for the second.

Going from `CC(Nc1ccc(F)c([C@@]2(C)N=C(N)N(C)C(=O)C2(C)C)c1)c1ccccn1` (stereo partly drawn) [Example 40] to `CC(Cc1ccc(F)cc1)Nc1ccc(F)c([C@@]2(C)N=C(N)N(C)C(=O)C2(C)C)c1` (stereo partly drawn) [Example 42, (S)-2-Amino-6-{2-fluoro-5-[2-(4-fluoro-phenyl)-1-methyl-ethylamino]-phenyl}-3,5,5,6-tetramethyl-5,6-dihydro-3H-pyrimidin-4-one], the IC50 rises from 0.021 µM to 0.211 µM (10-fold).

Going from `CN1C(=O)C(C)(C)[C@@](C)(c2cc(NC3CCC(C(F)(F)F)CC3)ccc2F)N=C1N` (stereo partly drawn) [Example 41, (S)-2-amino-6-(2-fluoro-5-(4-(trifluoromethyl)cyclohexylamino)phenyl)-3,5,5,6-tetramethyl-5,6-dihydropyrimidin-4(3H)-one] to `CN1C(=O)C(C)(C)[C@@](C)(c2cc(NC3CCOCC3)ccc2F)N=C1N` [Example 50, (S)-2-Amino-6-[2-fluoro-5-(tetrahydro-pyran-4-ylamino)-phenyl]-3,5,5,6-tetramethyl-5,6-dihydro-3H-pyrimidin-4-one], the IC50 falls from 0.426 µM to 0.0218 µM (20-fold).

Going from `CN1C(=O)C(C)(C)[C@@](C)(c2cc(NC3CCCN(Cc4ccccc4)C3)ccc2F)N=C1N` (stereo partly drawn) [Example 44, (S)-2-Amino-6-[5-(1-benzyl-piperidin-3-ylamino)-2-fluoro-phenyl]-3,5,5,6-tetramethyl-5,6-dihydro-3H-pyrimidin-4-one] to `CN1C(=O)C(C)(C)[C@@](C)(c2cc(NC3COc4ccccc43)ccc2F)N=C1N` (stereo partly drawn) [Example 51, (6S)-2-amino-6-(5-(2,3-dihydrobenzofuran-3-ylamino)-2-fluorophenyl)-3,5,5,6-tetramethyl-5,6-dihydropyrimidin-4(3H)-one], the IC50 rises from 0.045 µM to 0.073 µM (1.6-fold).

Compared with `CN1C(=O)C(C)(C)[C@@](C)(c2cc(NC3CCCOC3)ccc2F)N=C1N` (stereo partly drawn) [Example 45, (S)-2-Amino-6-[2-fluoro-5-(tetrahydro-pyran-3-ylamino)-phenyl]-3,5,5,6-tetramethyl-5,6-dihydro-3H-pyrimidin-4-one], `CN1C(=O)C(C)(C)[C@@](C)(c2cc(NC3CCc4cccc(Cl)c43)ccc2F)N=C1N` (stereo partly drawn) [Example 49, (S)-2-Amino-6-[5-(7-chloro-indan-1-ylamino)-2-fluoro-phenyl]-3,5,5,6-tetramethyl-5,6-dihydro-3H-pyrimidin-4-one] is 29-fold higher in IC50: 0.011 µM for the first, 0.321 µM for the second. The first is the more potent here.

Compared with `Cc1ccc2c(c1)C(Nc1ccc(F)c([C@@]3(C)N=C(N)N(C)C(=O)C3(C)C)c1)CC2(C)C` (stereo partly drawn) [Example 46, (S)-2-Amino-6-[2-fluoro-5-(3,3,6-trimethyl-indan-1-ylamino)-phenyl]-3,5,5,6-tetramethyl-5,6-dihydro-3H-pyrimidin-4-one], `COc1cccc2c1CCC2Nc1ccc(F)c([C@@]2(C)N=C(N)N(C)C(=O)C2(C)C)c1` (stereo partly drawn) [Example 47, (S)-2-Amino-6-[2-fluoro-5-(4-methoxy-indan-1-ylamino)-phenyl]-3,5,5,6-tetramethyl-5,6-dihydro-3H-pyrimidin-4-one] is 2-fold higher in IC50: 0.109 µM for the first, 0.217 µM for the second. The first is the more potent here.

From patent US8815881B2 (Hoffmann-La Roche Inc., priority 2010, dated 2014)
